In US4075339A, “Biologically active compounds” (University of Illinois Foundation, priority 1976, dated 1978):
≈ marks a conversion by molar mass, not a printed value.

Tests used:
[1] = test system: Reverse Transcriptase of Rauscher Leukemia Virus; assay: Inhibition of Reverse Transcriptase of Rauscher Leukemia Virus; type: biochemical; set-up: Reverse Transcriptase of Rauscher Leukemia Virus % Inhibition: concentration or dose not given beside the values; conditions: for Reverse Transcriptase of Rauscher Leukemia Virus % Inhibition: 37° C. for 90 minutes (Table 3); for Reverse transcriptase activity, cpm: 37° C. for 90 minutes, control 5396 cpm; for RLV Reverse Transcriptase % Inhibition: at a concentration of 0.25 μmole/ml (Table 4), 90 min
Method: *(The reverse transcriptase activity was measured at 37° C. for 90
(§1) Table 4, below, relates to the activity of compounds of Examples VIII through XVIII as bacterial RNA polymerase inhibitors and as inhibitors of reverse transcriptase when tested in the manner the compounds of Examples I through V as related, supra, in Tables 2 and 3.
**At a concentration of 0.25 μmole/ml.

E. coli RNA Polymerase = E. coli RNA Polymerase (Escherichia coli, UniProt P0A8V2); assay: E. coli RNA Polymerase Inhibition; type: biochemical; conditions: 0.25 h; for remaining activity at 500 µM: 0.5 μM/ml of compound, room temperature, 15 minutes, control = 100; for inhibition at 500 µM: at a concentration of 0.5 μmole/ml (Table 4)
Method: The assay mixtures contained, in a total volume of 0.25 ml: (Tris)HCl
buffer, pH 7.9, 5 μmoles; MgCl2, 1 μmole; mercaptoethanol, 3
μmoles; MpCl2, 0.25 μmole: GTP, UTP, and CTP, 0.1 μmole
polymerase, 0.5 units; and […] of compound. Reactions were run a
room temperature for 15 minutes.
as §1
*At a concentration of 0.5 μmole/ml.

S. aureus = assay: Bacterial inhibition, MIC in brain heart infusion broth; type: cell-based; conditions: Staphylococcus aureus, read-out: MIC (minimal inhibitory concentration)
Description: (§2) ^a Minimal inhibitory concentration in brain heart infusion broth.

D. penumoniae = assay: as above; type: cell-based; conditions: read-out: MIC (minimal inhibitory concentration)
Description: as §2

St. Faecalis = assay: as above; type: cell-based; conditions: Enterococcus faecalis, read-out: MIC (minimal inhibitory concentration)
Description: as §2

K. pneumoniae = assay: as above; type: cell-based; conditions: Klebsiella pneumoniae, read-out: MIC (minimal inhibitory concentration)
Description: as §2

E. coli = assay: as above; type: cell-based; conditions: Escherichia coli, read-out: MIC (minimal inhibitory concentration)
Description: as §2

S. Hemolyticus = assay: as above; type: cell-based; conditions: read-out: MIC (minimal inhibitory concentration)
Description: as §2

Ps. aeruginosa = assay: as above; type: cell-based; conditions: Pseudomonas aeruginosa, read-out: MIC (minimal inhibitory concentration)
Description: as §2

P. vulgaris = assay: as above; type: cell-based; conditions: Proteus vulgaris, read-out: MIC (minimal inhibitory concentration)
Description: as §2

E. coli RNA Polymerase, sequence (P0A8V2 whole entry): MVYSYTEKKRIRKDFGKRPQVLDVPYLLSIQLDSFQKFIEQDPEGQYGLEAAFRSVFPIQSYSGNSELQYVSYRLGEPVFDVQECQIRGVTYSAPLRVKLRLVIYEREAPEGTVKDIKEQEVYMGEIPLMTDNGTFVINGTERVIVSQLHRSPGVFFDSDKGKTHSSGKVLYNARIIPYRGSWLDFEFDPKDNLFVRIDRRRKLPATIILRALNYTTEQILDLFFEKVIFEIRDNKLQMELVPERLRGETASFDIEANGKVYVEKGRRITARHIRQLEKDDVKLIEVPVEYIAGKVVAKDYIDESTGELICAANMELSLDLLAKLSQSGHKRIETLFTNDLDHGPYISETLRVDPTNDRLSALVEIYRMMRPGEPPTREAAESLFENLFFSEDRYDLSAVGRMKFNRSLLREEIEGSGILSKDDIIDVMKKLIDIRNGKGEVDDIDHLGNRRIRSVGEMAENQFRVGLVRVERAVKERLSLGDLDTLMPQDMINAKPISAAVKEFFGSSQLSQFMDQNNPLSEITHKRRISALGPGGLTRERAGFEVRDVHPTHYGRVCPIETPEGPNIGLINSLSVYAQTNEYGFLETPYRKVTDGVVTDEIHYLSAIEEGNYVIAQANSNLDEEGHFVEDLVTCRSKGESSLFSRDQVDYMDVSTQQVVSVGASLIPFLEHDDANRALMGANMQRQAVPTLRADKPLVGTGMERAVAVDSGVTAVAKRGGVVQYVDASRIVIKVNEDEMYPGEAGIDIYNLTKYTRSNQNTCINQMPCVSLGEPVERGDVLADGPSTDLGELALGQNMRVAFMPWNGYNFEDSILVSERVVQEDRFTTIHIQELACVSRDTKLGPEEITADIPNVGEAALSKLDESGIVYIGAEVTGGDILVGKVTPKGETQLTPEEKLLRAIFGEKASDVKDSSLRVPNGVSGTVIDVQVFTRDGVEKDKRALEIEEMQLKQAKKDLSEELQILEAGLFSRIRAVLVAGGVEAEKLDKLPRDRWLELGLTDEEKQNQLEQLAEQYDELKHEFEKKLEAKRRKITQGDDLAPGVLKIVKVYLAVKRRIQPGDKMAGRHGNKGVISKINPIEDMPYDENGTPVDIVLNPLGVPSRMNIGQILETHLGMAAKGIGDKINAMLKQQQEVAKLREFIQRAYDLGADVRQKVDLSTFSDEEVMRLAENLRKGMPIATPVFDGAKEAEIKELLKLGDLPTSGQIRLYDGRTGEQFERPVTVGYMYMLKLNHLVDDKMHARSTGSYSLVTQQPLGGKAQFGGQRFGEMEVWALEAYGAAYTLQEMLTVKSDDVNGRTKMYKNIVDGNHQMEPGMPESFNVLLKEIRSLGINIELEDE
E. coli RNA Polymerase, sequence (P0A8T7 whole entry partner): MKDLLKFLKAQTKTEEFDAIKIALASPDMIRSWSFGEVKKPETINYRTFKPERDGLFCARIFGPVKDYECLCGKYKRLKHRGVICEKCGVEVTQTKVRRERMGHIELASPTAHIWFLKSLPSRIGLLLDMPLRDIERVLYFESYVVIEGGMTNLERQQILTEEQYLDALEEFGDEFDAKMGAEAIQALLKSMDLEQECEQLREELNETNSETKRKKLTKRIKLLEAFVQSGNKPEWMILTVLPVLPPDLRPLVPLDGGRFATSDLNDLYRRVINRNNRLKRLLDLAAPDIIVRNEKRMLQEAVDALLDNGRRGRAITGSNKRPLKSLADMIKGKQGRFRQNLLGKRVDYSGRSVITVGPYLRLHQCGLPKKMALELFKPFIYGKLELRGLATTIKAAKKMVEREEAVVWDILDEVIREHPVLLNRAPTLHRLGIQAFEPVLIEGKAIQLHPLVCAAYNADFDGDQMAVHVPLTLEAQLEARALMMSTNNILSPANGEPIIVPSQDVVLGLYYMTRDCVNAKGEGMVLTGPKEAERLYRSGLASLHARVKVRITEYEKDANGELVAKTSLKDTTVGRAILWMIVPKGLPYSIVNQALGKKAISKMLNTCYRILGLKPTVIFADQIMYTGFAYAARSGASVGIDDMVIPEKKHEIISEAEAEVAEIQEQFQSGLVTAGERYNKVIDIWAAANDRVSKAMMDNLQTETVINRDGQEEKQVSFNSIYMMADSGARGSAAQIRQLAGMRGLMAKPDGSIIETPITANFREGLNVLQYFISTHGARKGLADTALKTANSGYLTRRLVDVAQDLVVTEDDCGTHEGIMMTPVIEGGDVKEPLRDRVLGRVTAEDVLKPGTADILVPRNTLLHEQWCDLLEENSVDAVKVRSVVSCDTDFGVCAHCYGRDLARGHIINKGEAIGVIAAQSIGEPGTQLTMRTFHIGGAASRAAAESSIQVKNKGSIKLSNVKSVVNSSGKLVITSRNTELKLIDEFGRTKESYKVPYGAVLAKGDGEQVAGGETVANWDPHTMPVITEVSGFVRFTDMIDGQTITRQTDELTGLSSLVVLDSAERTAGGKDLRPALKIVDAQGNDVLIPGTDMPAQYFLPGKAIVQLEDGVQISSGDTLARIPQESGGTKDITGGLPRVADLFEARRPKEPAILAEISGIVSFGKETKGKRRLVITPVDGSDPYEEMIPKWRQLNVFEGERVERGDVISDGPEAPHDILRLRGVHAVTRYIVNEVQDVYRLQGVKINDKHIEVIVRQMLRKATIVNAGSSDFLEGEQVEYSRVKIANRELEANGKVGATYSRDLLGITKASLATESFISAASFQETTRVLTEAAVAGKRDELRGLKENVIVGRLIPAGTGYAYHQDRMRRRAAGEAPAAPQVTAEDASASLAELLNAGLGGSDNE
E. coli RNA Polymerase, sequence (P0A7Z4 whole entry partner): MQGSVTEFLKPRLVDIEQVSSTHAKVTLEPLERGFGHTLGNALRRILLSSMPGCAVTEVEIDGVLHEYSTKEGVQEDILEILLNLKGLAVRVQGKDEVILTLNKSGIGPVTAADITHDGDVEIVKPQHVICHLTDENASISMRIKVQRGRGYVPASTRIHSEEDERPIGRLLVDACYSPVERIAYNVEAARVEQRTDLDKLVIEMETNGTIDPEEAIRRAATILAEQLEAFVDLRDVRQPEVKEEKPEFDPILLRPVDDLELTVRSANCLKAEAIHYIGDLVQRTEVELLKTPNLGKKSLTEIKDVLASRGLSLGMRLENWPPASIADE
E. coli RNA Polymerase, sequence (P0A800 whole entry partner): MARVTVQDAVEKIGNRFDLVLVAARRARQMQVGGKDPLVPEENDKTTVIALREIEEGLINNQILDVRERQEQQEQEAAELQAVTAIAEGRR

Structure (SMILES)	Reverse Transcriptase of Rauscher Leukemia Virus % Inhibition [1] [%]	Reverse transcriptase activity, cpm [1] [cpm]	remaining activity at 500 µM (E. coli RNA Polymerase) [%]	MIC (S. aureus) [µg/mL]	MIC (D. penumoniae) [µg/mL]	MIC (St. Faecalis) [µg/mL]	MIC (K. pneumoniae) [µg/mL]	MIC (E. coli) [µg/mL]	MIC (S. Hemolyticus) [µg/mL]	MIC (Ps. aeruginosa) [µg/mL]	MIC (P. vulgaris) [µg/mL]	RLV Reverse Transcriptase % Inhibition [1]	inhibition at 500 µM (E. coli RNA Polymerase) [%]
COC1=C2CC(C)CC(OC)C(O)C(C)/C=C(\C)C(OC(N)=O)C(OC)/C=C\C=C(/C)C(=O)NC(=C(C=NC(C)(C)C)C1=O)C2=O (stereo not shown) [Example I]	93.0	376	99	500 (≈ 777 µM)	250 (≈ 388 µM)	> 500	500 (≈ 777 µM)	500 (≈ 777 µM)	250 (≈ 388 µM)	250 (≈ 388 µM)	500 (≈ 777 µM)	–	–
COC1=C2CC(C)CC(OC)C(O)C(C)/C=C(\C)C(OC(N)=O)C(OC)/C=C\C=C(/C)C(=O)NC(=C(C=NOC(c3ccccc3)c3ccccc3)C1=O)C2=O (stereo not shown) [III]	98.6	75	84	> 500	62.5 (≈ 81.2 µM)	> 500	> 500	> 500	31.2 (≈ 40.5 µM)	> 500	> 500	–	–
COC1=C2CC(C)CC(OC)C(O)C(C)/C=C(\C)C(OC(N)=O)C(OC)/C=C\C=C(/C)C(=O)NC(=C(C=NN3CCN(C)CC3)C1=O)C2=O (stereo not shown) [II]	93.4	357	106	> 500	500 (≈ 729 µM)	> 500	500 (≈ 729 µM)	500 (≈ 729 µM)	500 (≈ 729 µM)	250 (≈ 365 µM)	500 (≈ 729 µM)	–	–
CCCCCCCCON=CC1=C2NC(=O)/C(C)=C/C=C\C(OC)C(OC(N)=O)/C(C)=C/C(C)C(O)C(OC)CC(C)CC(=C(OC)C1=O)C2=O (stereo not shown) [IV]	94.4	303	110	> 500	7.8 (≈ 10.9 µM)	> 500	> 500	> 500	7.8 (≈ 10.9 µM)	> 500	> 500	–	–
COC1/C=C\C=C(/C)C(=O)Nc2cc3nc4ccccc4nc3c(c2O)CC(C)CC(OC)C(O)C(C)/C=C(\C)C1OC(N)=O (stereo not shown) [VIII, demethoxygeldanazine]	–	–	–	–	–	–	–	–	–	–	–	98%	5 to 16
COC1=C2CC(C)CC(OC)C(O)C(C)/C=C(\C)C(OC(N)=O)C(OC)/C=C\C=C(/C)C(=O)NC(=C(C=NN3CCN(Cc4ccccc4)CC3)C1=O)C2=O (stereo not shown) [V]	97.1	154	88	500 (≈ 656 µM)	62.5 (≈ 82 µM)	500 (≈ 656 µM)	500 (≈ 656 µM)	500 (≈ 656 µM)	125 (≈ 164 µM)	250 (≈ 328 µM)	500 (≈ 656 µM)	–	–
COC1/C=C\C=C(/C)C(=O)Nc2cc3nc4ccc(C)cc4oc-3c(c2=O)CC(C)CC(OC)C(O)C(C)/C=C(\C)C1OC(N)=O (stereo not shown) [XIII]	–	–	–	–	–	–	–	–	–	–	–	77%	21
COC1/C=C\C=C(/C)C(=O)Nc2cc3nc4cc(C)ccc4oc-3c(c2=O)CC(C)CC(OC)C(O)C(C)/C=C(\C)C1OC(N)=O (stereo not shown) [XII]	–	–	–	–	–	–	–	–	–	–	–	89%	9
COC1/C=C\C=C(/C)C(=O)Nc2cc3nc4cccc(C)c4oc-3c(c2=O)CC(C)CC(OC)C(O)C(C)/C=C(\C)C1OC(N)=O (stereo not shown) [XIV]	–	–	–	–	–	–	–	–	–	–	–	72%	6
COC1/C=C\C=C(/C)C(=O)Nc2cc3nc4ccccc4oc-3c(c2=O)CC(C)CC(OC)C(O)C(C)/C=C(\C)C1OC(N)=O (stereo not shown) [XI]	–	–	–	–	–	–	–	–	–	–	–	98%	61 to 67
COC(=O)[C@@H](NC(=O)c1ccc(C)c2oc3c4c(=O)c(cc-3nc12)NC(=O)/C(C)=C/C=C\C(OC)C(OC(N)=O)/C(C)=C/C(C)C(O)C(OC)CC(C)C4)[C@@H](C)O (stereo partly shown) [XVIII]	–	–	–	–	–	–	–	–	–	–	–	0%	–
COC(=O)c1cccc2oc3c4c(=O)c(cc-3nc12)NC(=O)/C(C)=C/C=C\C(OC)C(OC(N)=O)/C(C)=C/C(C)C(O)C(OC)CC(C)C4 (stereo not shown) [XVII]	–	–	–	–	–	–	–	–	–	–	–	0%	–
COC1/C=C\C=C(/C)C(=O)Nc2cc3nc4cc(Cl)ccc4oc-3c(c2=O)CC(C)CC(OC)C(O)C(C)/C=C(\C)C1OC(N)=O (stereo not shown) [XVI]	–	–	–	–	–	–	–	–	–	–	–	60%	–
COC1/C=C\C=C(/C)C(=O)Nc2cc3nc4cc(Br)ccc4oc-3c(c2=O)CC(C)CC(OC)C(O)C(C)/C=C(\C)C1OC(N)=O (stereo not shown) [XV]	–	–	–	–	–	–	–	–	–	–	–	82 - 100%	60
